Laboratory results reported in US11345762B2, “Method for preparing liquid medium composition, and preparation device and kit therefor” (NISSAN CHEMICAL INDUSTRIES, LTD., priority 2015, dated 2022).

Test system: Human pancreatic cancer cell line Panc02,03
Assay: Proliferation action on Panc02,03 cell stimulated by each growth factor (ATP, CellTiter-Glo)
Type: cell-based
[1] = Panc02,03, 10 ng/mL, medium composition of Example 13, on day 6 (head)
[2] = Panc02,03, 10 ng/mL, monolayer culture group, culture conditions on day 6 (head)
[3] = Panc02,03, 10 ng/mL, negative control group (medium free of deacylated gellan gum, low adhesion plate), on day 6 (head)
[4] = Panc02,03, 100 ng/mL, medium composition of Example 13, on day 6 (head)
[5] = Panc02,03, 100 ng/mL, monolayer culture group, culture conditions on day 6 (head)
[6] = Panc02,03, 100 ng/mL, negative control group (medium free of deacylated gellan gum, low adhesion plate), on day 6 (head)
[7] = Panc02,03, 30 ng/mL, medium composition of Example 13, on day 6 (head)
[8] = Panc02,03, 30 ng/mL, monolayer culture group, culture conditions on day 6 (head)
[9] = Panc02,03, 30 ng/mL, negative control group (medium free of deacylated gellan gum, low adhesion plate), on day 6 (head)

Row | Molecule | % control of RLU value (ATP measurement, luminescence intensity) [1] [% Control] | % control of RLU value (ATP measurement, luminescence intensity) [2] [% Control] | % control of RLU value (ATP measurement, luminescence intensity) [3] [% Control] | % control of RLU value (ATP measurement, luminescence intensity) [4] [% Control] | % control of RLU value (ATP measurement, luminescence intensity) [5] [% Control] | % control of RLU value (ATP measurement, luminescence intensity) [6] [% Control] | % control of RLU value (ATP measurement, luminescence intensity) (Panc02,03, 3 ng/mL, medium composition of Example 13, on day 6 (head)) [% Control] | % control of RLU value (ATP measurement, luminescence intensity) (Panc02,03, 3 ng/mL, monolayer culture group, culture conditions on day 6 (head)) [% Control] | % control of RLU value (ATP measurement, luminescence intensity) (Panc02,03, 3 ng/mL, negative control group (medium free of deacylated gellan gum, low adhesion plate), on day 6 (head)) [% Control] | % control of RLU value (ATP measurement, luminescence intensity) [7] [% Control] | % control of RLU value (ATP measurement, luminescence intensity) [8] [% Control] | % control of RLU value (ATP measurement, luminescence intensity) [9] [% Control] | efficacy in Panc02,03 cell proliferation test using the medium composition by the production method of the present invention (in words) (compared to a monolayer culture method and negative control group)
1 | human FGF-2: growth factor, manufactured by PEPROTECH | 107 | 108 | 118 | 100 | 102 | 99 |  |  |  |  |  |  | 
2 | human IGF-1: growth factor, manufactured by PEPROTECH | 100 | 101 | 119 | 110 | 98 | 121 |  |  |  |  |  |  | 
3 | human TGF-β1: growth factor, manufactured by PEPROTECH |  |  |  |  |  |  | 102 | 95 | 114 | 106 | 99 | 122 | 
4 | human HB-EGF: growth factor, manufactured by PEPROTECH (protein, UniProt Q99075 63-148, looked up) Heparin-binding EGF-like …: DLQEADLDLLRVTLSSKPQALATPNKEEHGKRKKKGKGLGKKRDPCLRKYKDFCIHGECKYVKELRAPSCICHPGYHGERCHGLSL |  |  |  | 202 | 98 | 134 |  |  |  | 118 | 99 | 132 | strongly shown
5 | human PDGF-BB: growth factor, manufactured by PEPROTECH (protein, UniProt P01127 82-190, looked up, homodimer, growth factor, manufactured by PEPROTECH) Platelet-derived growth …: SLGSLTIAEPAMIAECKTRTEVFEISRRLIDRTNANFLVWPPCVEVQRCSGCCNNRNVQCRPTQVQLRPVQVRKIEIVRKKPIFKKATVTLEDHLACKCETVAAARPVT | 101 | 98 | 128 |  |  |  |  |  |  |  |  |  | 
